The source of these data is patent publication US20170210757A1 (ALFA WASSERMANN S.P.A., priority 2003, published 2017).

Series [1] can be described thus: Intrinsic dissolution test (USP 27 monograph 1087). In kind it is physicochemical. The text has this:
The die-holder containing the compacted pellet has then been mounted on a laboratory stirring device, immersed in a dissolution medium and rotated by means of the stirring device.
A compacted pellet was formed in the die with a single face of defined area exposed on the bottom of the die so that from 50% to 75% of the compacted pellet could dissolve in an appropriate dissolution medium.
The holder containing the die was mounted on a laboratory stirring device, immersed in a glass vessel containing a dissolution medium and rotated at a rotation speed of 100 rpm by means of the stirring device, while keeping the temperature of the dissolution medium at 37±0.5° C. […]

A short description of series [2]: Hygroscopicity and humidity-dependent transition between polymorphic forms. The conditions noted are these: for hygroscopicity: reversibly absorb water under suitable conditions of pressure and humidity. Format: physicochemical. The source says:
Both the form γ and the forms α and β of rifaximin are hygroscopic, they reversibly absorb water in time in the presence of suitable environmental conditions of pressure and humidity and are susceptible of transformation from one form into another.

Series [3] in a line: Bioavailability in dogs by oral route (plasma rifaximin by LC-MS/MS). In kind it is in vivo, Beagle female dogs. As to the method:
Twelve 20 week pure-bred Beagle females dogs, and weighing between 5.0 and 7.5 kg, have been divided into three groups of four.
Each sample was transferred into an heparinized tube and was centrifuged; the plasma was divided into 50μl two aliquots and frozen at −20° C.
Tmax=time at which the Cmax is reached;
AUC=area under the concentration-time curve calculated through the linear trapezoidal rule.

[4] abbreviates: single oral administration of 100 mg/kg by capsules to female dogs, plasma, listed as Polimorph α, 100 mg/kg.
Where [5] appears, read: single oral administration of 100 mg/kg by capsules to female dogs, plasma, listed as Polimorph β, 100 mg/kg.
Setting [6] is: single oral administration of 100 mg/kg by capsules to female dogs, plasma, listed as Polimorph γ, 100 mg/kg.

Molecules are shown by their SMILES. Like-named read-outs stand apart in the source and are kept apart here.

On to `CO[C@H]1/C=C/O[C@@]2(C)Oc3c(C)c(O)c4c(O)c(c5c(nc6cc(C)ccn65)c4c3C2=O)NC(=O)/C(C)=C\C=C\[C@H](C)[C@H](O)[C@@H](C)[C@@H](O)[C@@H](C)[C@H](OC(C)=O)[C@@H]1C` [rifaximin α, rifaximin], for which, in series [1] (phosphate buffer pH 7.4, 37°C, with sodium lauryl sulfate, also at 0.1% and 0.3% and without surfactant), the “disintegration of the compacted pellet (time)” value is no more than 10 min. Further, the “solid form transition under humidity” value in series [2] (relative humidity higher than 50% for 12 to 48 hours) is “changes into the polymorphic form β”. Also, the hygroscopicity result in series [2] is “hygroscopic”. The Cmax – broadly, the maximum level reached in the sampled fluid or tissue – in series [3] (Beagle, dog, plasma, oral, 100 mg/kg, pharmaceutical composition comprising the polymorphic form, conditions not stated, read-out: Cmax (summary embodiment)) was roughly 2 ng/mL. In addition, the Tmax (as a rule, the time at which the peak concentration occurs) in series [3] (female, Beagle, dog, plasma, po, 100 mg/kg, single oral administration of 100 mg/kg by capsules to female dogs) worked out at 9.5 h. The “AUC0-24 h (summary embodiment)” value in series [3] (pharmaceutical composition comprising the polymorphic form, conditions not stated, listed as rifaximin in polymorphic form α) was “about 13 ng·h/ml”. In series [3] (setting [4]), the “AUC0-24 Mean” value was determined as 13 ng·h/mL and the “Cmax Mean” value is 2.632 ng/mL.

`CO[C@H]1/C=C/O[C@@]2(C)Oc3c(C)c(O)c4c(O)c(c5c(nc6cc(C)ccn65)c4c3C2=O)NC(=O)/C(C)=C\C=C\[C@H](C)[C@H](O)[C@@H](C)[C@@H](O)[C@@H](C)[C@H](OC(C)=O)[C@@H]1C` [rifaximin β, rifaximin]: the Intrinsic dissolution rate in series [1] (0.1M aqueous phosphate buffer pH 7.4 with 0.45% sodium lauryl sulfate, 37°C, listed as β polymorph) was determined as 0.0147 mg/min/cm^2. The Rifaximin dissolved was 0.28 mg/cm^2 in series [1] (15 min, 0.1M aqueous phosphate buffer pH 7.4 with 0.45% sodium lauryl sulfate, 37°C, listed as β polymorph); 0.50 mg/cm^2 in series [1] (30 min, 0.1M aqueous phosphate buffer pH 7.4 with 0.45% sodium lauryl sulfate, 37°C, listed as β polymorph); 0.71 mg/cm^2 in series [1] (45 min, 0.1M aqueous phosphate buffer pH 7.4 with 0.45% sodium lauryl sulfate, 37°C, listed as β polymorph); 0.94 mg/cm^2 in series [1] (60 min, 0.1M aqueous phosphate buffer pH 7.4 with 0.45% sodium lauryl sulfate, 37°C, listed as β polymorph). Besides, the “intrinsic dissolution rate (summary embodiment)” value in series [1] (pharmaceutical composition comprising the polymorphic form, conditions not stated) is given as “about 0.01 mg/min/cm^2”. For the same compound, the hygroscopicity entry in series [2] is reported as “hygroscopic”. Also, the “AUC0-24 h (summary embodiment)” value in series [3] (pharmaceutical composition comprising the polymorphic form, conditions not stated, listed as rifaximin in polymorphic form β) is on record as “about 11 ng·h/ml”. In series [3] (setting [5]), the “AUC0-24 Mean” value is 11 ng·h/mL. Also, the “tmax Mean” value in series [3] (setting [5]) came to 4 h.

With `CO[C@H]1/C=C/O[C@@]2(C)Oc3c(C)c(O)c4c(O)c(c5c(nc6cc(C)ccn65)c4c3C2=O)NC(=O)/C(C)=C\C=C\[C@H](C)[C@H](O)[C@@H](C)[C@@H](O)[C@@H](C)[C@H](OC(C)=O)[C@@H]1C` [rifaximin γ, rifaximin], the hygroscopicity entry in series [2] is recorded as “hygroscopic”. For the same compound, the Cmax in series [3] (female, Beagle, dog, plasma, po, 100 mg/kg, oral 100 mg/kg, Beagle female dogs, read-out: Cmax) worked out at 668 ng/mL. Moreover, the “absorption in respect of rifaximin α and rifaximin β” value in series [3] (oral 100 mg/kg, Beagle female dogs) was “more than 102 times”. The “AUC0-24 h (summary embodiment)” value in series [3] (pharmaceutical composition comprising the polymorphic form, conditions not stated, listed as rifaximin in polymorphic form γ) is recorded as “about 4000 ng·h/ml”. Moreover, in series [3] (setting [6]), the “AUC0-24 Mean” value was 3908 ng·h/mL and the “Cmax Mean” value came to 668.22 ng/mL.
